According to patent US4831033A (City of Hope, priority 1988, dated 1989):

Assays:
[1] = system: K^+ transport, P3 membrane fractions from whole brains of Swiss mice; experiment: K^+ transport (^86 Rb uptake) in P3 membrane fractions; type: biochemical; details: for K^+ Transport Relative Potency: relative to amodiaquin; for concentration inhibiting K^+ transport (selection criterion): submillimolar concentrations
Description: To obtain the data set forth in Table I, K^+ -transport was measured using P3 membrane fractions prepared from whole brains of Swiss mice. […] The resulting supernatant was centrifuged at 17,000 g for 15 minutes, and the supernatant from the latter was centrifuged at 70,000 g for 1 hour to pellet the P3 fraction. The P3 pellet was washed by resuspension in 50 mM Tris-citrate (pH 7.3). After 10 minutes on ice, the suspension was centrifuged at 70,000 g for 10 minutes. This washing procedure was repeated twice using distilled water for the resuspension. […] The suspension (2-3 mg protein/ml) was stabilized on ice for 1 hour prior to use. Uptake of ^86 Rb (radioactive) was used to assess the K^+ -transport of the P3 articles. Many published experiments have shown the ^86 Rb, with a half-life 36 times longer than ^42 K, is a suitable tracer for K. Rb permeates neuronal K channels as well as does K itself.
After filtration of the samples, the filters were washed rapidly three times with 10^-3 M triethanolamine containing 0.1M RbCl (non-radioactive) and counted in ACS liquid scintillation cocktail (Amersham). In calculating the results, the uptake found in the presence of 0.1M non-radioactive RbCl was subtracted from that found in the presence of various concentrations of the test substances in the presence of 10^-6 M ^86 RbCl alone. […] Between 0.2 and 0.5 mg/ml usually were employed. The results were normalized by calculating them as percentages of the uptake observed with 10^-6 M ^86 RbCl alone.

[2] = target: T1, Acetylcholinesterase (Electrophorus electricus, UniProt O42275); experiment: Acetylcholinesterase activity, acetylthiocholine substrate, colorimetric (Ellman); type: biochemical, electric eel; details: for Acetylcholinesterase Activity Relative Potency: relative to amodiaquin
T1 construct: prepared from the electric organ of the electric eel; from tissue; host or cells: electric organ of the electric eel
Description: Cholinesterase activity reported in Table I was measured by a standard procedure. The enzyme employed was prepared from the electric organ of the electric eel. It is known to have the same properties as the enzyme of mammalian nervous tissue. Acetylthiocholine was used as substrate.
Inhibitory potency of substances was determined by measuring enzyme activity in the absence and presence of varying concentrations of the test substances.

T1 sequence (O42275 24-633): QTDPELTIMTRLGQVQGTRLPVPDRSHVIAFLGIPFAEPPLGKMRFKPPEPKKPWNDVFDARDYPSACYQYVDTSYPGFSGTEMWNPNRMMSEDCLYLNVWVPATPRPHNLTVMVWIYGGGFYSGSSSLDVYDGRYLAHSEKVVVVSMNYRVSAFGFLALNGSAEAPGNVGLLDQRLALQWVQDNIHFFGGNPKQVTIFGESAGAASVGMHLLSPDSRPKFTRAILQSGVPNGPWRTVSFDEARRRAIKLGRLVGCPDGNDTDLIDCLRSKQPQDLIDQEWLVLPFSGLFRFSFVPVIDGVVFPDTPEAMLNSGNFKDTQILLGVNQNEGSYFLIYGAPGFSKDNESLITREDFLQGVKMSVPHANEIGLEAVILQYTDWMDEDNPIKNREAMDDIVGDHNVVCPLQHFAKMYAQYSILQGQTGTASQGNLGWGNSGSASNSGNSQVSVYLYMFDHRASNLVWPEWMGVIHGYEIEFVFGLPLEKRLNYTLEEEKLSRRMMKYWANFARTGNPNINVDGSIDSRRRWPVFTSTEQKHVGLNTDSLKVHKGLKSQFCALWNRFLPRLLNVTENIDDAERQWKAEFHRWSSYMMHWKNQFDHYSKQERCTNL

## Nc1c2ccccc2nc2ccccc12 [9-aminoacridine]
[1]
  K^+ Transport Rank Order: 2
  K^+ transport inhibition compared with amodiaquin (in words): approximately one-half

## CCN(CC)CCCC(C)Nc1c2ccc(Cl)cc2nc2ccc(OC)cc12 (stereo not shown) [Quinacrine, quinacrine]
[1]
  K^+ Transport Rank Order: 3
  K^+ transport inhibition compared with amodiaquin (in words): approximately one-half
  K^+ Transport Relative Potency: 0.44
  concentration inhibiting K^+ transport (selection criterion): ≤ 10^-3 M
[2]
  Acetylcholinesterase Activity Rank Order: 4(5)
  cholinesterase inhibitory potency compared with amodiaquin (in words): less than one-thousandth
  Acetylcholinesterase Activity Relative Potency: 0.001

## CCN(CC)CCCC(C)Nc1ccnc2cc(Cl)ccc12 (stereo not shown) [Chloroquine, chloroquine]
[1]
  K^+ Transport Rank Order: 4
  K^+ transport inhibition compared with amodiaquin (in words): approximately one-twentieth as active
  K^+ Transport Relative Potency: 0.067
  concentration inhibiting K^+ transport (selection criterion): ≤ 10^-3 M
[2]
  Acetylcholinesterase Activity Rank Order: 5(4)
  cholinesterase inhibitory potency compared with amodiaquin (in words): less than one-thousandth
  Acetylcholinesterase Activity Relative Potency: 0.001

## CCN(CC)Cc1cc(Nc2ccnc3cc(Cl)ccc23)ccc1O [Amodiaquin, amodiaquin]
[1]
  K^+ Transport Rank Order: 1
  K^+ transport inhibition compared with amodiaquin (in words): ranked first
[2]
  cholinesterase inhibitory potency compared with amodiaquin (in words): most effective cholinesterase inhibitor of this group
